Test results published in ChEMBL document CHEMBL3507680, “University of Dundee, Gates Library screen for HepG2 cell viability”.

Assay: Human HepG2 cell viability assay in 384 well format
Assay type: toxicity, cell-based
Design: dose 125 nL, time 70.5 hour; cytotoxicity at 70.5 h: concentration not given beside the values
Settings: HepG2 cells, read-out: Inhibition

SMILES | cytotoxicity at 70.5 h [%]
CC(=O)N1CCC[C@H]1C(=O)NCCCN(C(C)C)S(C)(=O)=O | -6.32
COCC(C)(O)CNC(=O)c1cc(-c2ccc(F)cc2)nn1C (centres undefined) | 1.82
O=C(NC[C@]1(O)CCN(Cc2ccccc2F)C[C@H]1O)c1c[nH]cn1 | -0.237
Nc1nc(CC(=O)N2CCCC(CCc3cccc(F)c3)C2)cc(=O)[nH]1 (centres undefined) | -12.2
Cc1oncc1C(=O)N1C[C@H]2CCCC(N(C)Cc3cccs3)[C@H]2C1 (some centres undefined) | -8.63
Cc1ccc(NC2CCN(C(=O)c3cccc4c3ccn4C)CC2)nn1 | -3.5
O=C(NCCC1=CCCCC1)NC1CCCc2c1cnn2CCO (centres undefined) | -10.1
CN(C)c1ncccc1CNC(=O)N1CCN(C)c2ccccc2C1 | -8.8
CCCNc1nnc(S(=O)(=O)CCOCC)s1 | -0.768
N#Cc1cn(C2CC2)c(=O)n(CC(O)c2ccc(OC(F)F)cc2)c1=O (centres undefined) | -17.5
CC(C)N(CC(N)=O)CC(=O)N(C1=CCCCC1)C1CC1 | 3.33
O=C(Cc1ccsc1)N1CCCCC1c1ccn2ccnc2n1 (centres undefined) | 8.15
Cc1ccc(-c2cccc(CC3(C(=O)O)CCOCC3)c2)c(C)c1 | -5.38
CCOc1ccccc1C(CC(=O)Nc1ccccc1F)NC(C)=O (centres undefined) | -6.84
CC(C)CN1C(=O)C2(CCN(Cc3nccs3)C2)c2ccccc21 (centres undefined) | -1.93
O=C(c1ccc(Br)o1)N1CCN(Cc2ccc(F)cc2)CC1 | 7.95
CC(C)NC(=O)[C@H]1C[C@@H]2CN(C(=O)NCCc3ccccc3)C[C@H]1O2 | 8.95
Cc1csc(C2CCCCN2C(=O)CCCn2cccn2)n1 (centres undefined) | -11.4
Cc1nc(CN2CCN(C(=O)NC(C)c3cccnc3)CC2)cs1 (centres undefined) | 30.6
COCCN1C(=O)[C@H]2CC[C@@H]1CN(S(=O)(=O)c1cccc(Cl)c1)C2 | 17.8
CCN1CC2(CC1=O)CN(C(=O)C(C)C)CCN(S(C)(=O)=O)C2 (centres undefined) | 19.5
COCCN(Cc1cccc(O)c1)Cc1ccccc1F | 1.04
O=C(COCC1CCCCO1)N1CCN(Cc2ccccc2F)C(=O)C1 (centres undefined) | -1.62

SMILES | cytotoxicity at 70.5 h [%]
Cn1c(NCC(O)c2ccc(F)cc2)c(C#N)c(=O)n(C)c1=O (centres undefined) | -5.75
Cc1ncc2c(c1CNC(=O)C1(C)CCCCO1)CCNC2 (centres undefined) | 0.49
CC(C)n1ccnc1C1CCN(C(=O)c2ccccn2)CC1 | -6.85
Cc1ccc2nc(CNc3ccccc3C(=O)NC3CC3)cn2c1 | -4.35
Cc1nn(C)c2c(NC3CCCC3)nc(C3CC3)nc12 | -7.15
CCC(=O)N(CC)CCc1nccs1 | -9.4
Cc1occc1C(=O)N1CCc2c(COCC3CC3)cncc2C1 | -2.87
O=C(c1nn[nH]c1Nc1ccc(Cl)cc1)N1CCSCC1 | 9.23
Cc1nc(CN2CCCC(C)(CO)C2)no1 (centres undefined) | -4.42
COCC(c1cccc(C(F)(F)F)c1)N(C)C(=O)c1ccco1 (centres undefined) | -1.02
CN1CCN(C(=O)Cc2cccc(F)c2)Cc2cccnc21 | -5.94
CC(C)c1csc(NC(=O)NC2CCCN(c3cnn(C)c3)C2)n1 (centres undefined) | -7.46
COc1cc2[nH]c(=O)c(CN3CCCC3C)cc2c(OC)c1OC (centres undefined) | -6.4
Fc1cnc(N2CCO[C@H]3CN(CC4CCCC4)C[C@H]32)nc1 | -13
CN(C)[C@@H]1CCN(C(=O)c2cccn2C)[C@H]1Cc1cnn(C)c1 | -11.3
COc1ccccc1CNC(=O)CN(C)C(C)c1ccon1 (centres undefined) | -18.5
Cc1csc(CN2CCC[C@]3(C[C@H](OCC4CC4)CO3)C2)n1 | 1.27
Cc1cc(CNC(=O)NCCOc2ccc(F)c(F)c2)on1 | -6.89
Cc1ccsc1CN(Cc1ccccn1)CC(C)C | -6.06
CSCC(=O)N1CCCCC1Cn1cc(C)cn1 (centres undefined) | -1.03
CCCn1ncc2c(C(=O)NC(C)Cn3cccn3)cc(C3CC3)nc21 (centres undefined) | -13.1
c1cncc(COCc2nnn3c2CN(Cc2ccsc2)CC3)c1 | -2.9
N#Cc1cnc(N2CCC3(CC2)OCCO3)nc1N | -5.59

SMILES | cytotoxicity at 70.5 h [%]
Cc1ncsc1CCn1ccnc1-c1cc2n(n1)CCCNC2 | 5.55
Cc1nc(CCNC(=O)C2CC(=O)N(C(C)(C)C)C2)sc1C (centres undefined) | -8.11
Cc1ccccc1CN(CCN(C)C)Cc1ccc(C(=O)O)cc1 | -5.98
O=C1CC[C@@H](CN(Cc2ccncc2)Cc2nc(CC3CC3)no2)N1 | -5.49
CCc1nnc(SCC(=O)Nc2cc(C(C)(C)C)nn2C)[nH]1 | -5.12
CC(C)n1cnnc1CNC(=O)CCCOc1ccccc1Cl | -6.43
Cc1nc(CN2C[C@@H](NC(=O)C3CCC3)[C@H]3COC[C@H]32)cs1 | -5.49
CCOc1ncccc1NC(=O)NC1CCN(c2ncccn2)CC1 | 2.59
CC(C)=CCCC(C)CN1CCC(n2cc(C(=O)NCCO)nn2)CC1 (centres undefined) | -4.56
CC(NC(=O)NCCCn1ccnc1)c1ccc2c(c1)CCC(=O)N2 (centres undefined) | 43.4
CCc1ncnc2c1CCN(CCOC)CC2 | -9.59
Cc1cc(-c2cnc(C)nc2CN(C)C(=O)c2cc(C3CC3)on2)on1 | -3.21
N#Cc1ccc(CCC(=O)N2CCCC(n3cncn3)C2)cc1 (centres undefined) | -8.59
COc1ccc(CCN2CCc3c(nc(C4CC4)n3C)C2)cc1 | -2.39
CC(=O)N1CC[C@H]2OCC[C@@]2(C(=O)NCc2cnc(C)cn2)C1 | -5.25
Cc1occc1CNC(=O)C1(C)CCCN(C(=O)c2ccccc2)C1 (centres undefined) | 0.298
CC(=O)NCC(=O)N1C[C@H](OCc2cccnc2)[C@H]2COC[C@H]21 | 3.33
Cc1nc(NC(=O)CCOCC(F)(F)F)ccc1Br | 2.27
Cn1ccnc1CN1CCCC(CCCc2ccccn2)(C(N)=O)C1 (centres undefined) | -4.1
CS(=O)(=O)N1CCN2C(=O)N(C3CCOCC3)C[C@H]2C1 | 12.9
Cc1cnc(CN2CCN(c3ccc4nncn4n3)C(C)C2)cn1 (centres undefined) | -15.4
CS(=O)(=O)N[C@@H]1CN(Cc2ccc3ncccc3c2)C[C@H]1O | -5.91
COCCSc1ccc(C(C)NC(=O)Nc2cccnc2)cc1 (centres undefined) | -4.37

SMILES | cytotoxicity at 70.5 h [%]
CCc1cc(NCCCN(C)C2CCCC2)ncn1 | -11.3
COCC(=O)N(CCC(=O)OC)CC1CCCO1 (centres undefined) | -10.3
Cn1cc(C2CCCN2C(=O)CCCc2ccccn2)cn1 (centres undefined) | -7.85
CCOCC(=O)N1CCC[C@]2(C[C@@H](OCc3ccncc3)CO2)C1 | -7.17
CC(C)N1CCC(CC(=O)NCC2OCCc3ccccc32)CC1 (centres undefined) | -9.87
O=C(c1ncn2c1CNS(=O)(=O)c1ccccc1-2)N1CCOCC1 | 13.4
Cc1ccc(F)c(OC2(C(=O)O)CCN(C(=O)C3CCCC3)CC2)c1 | -4.91
CCO[C@@H]1CO[C@@]2(CCCN(C(=O)COc3ccccc3OC)C2)C1 | -9.81
CC(C)c1csc(C(=O)N2CCCC(Cn3cc(CO)nn3)C2)n1 (centres undefined) | -0.0869
Cc1cc(S(=O)(=O)N2CCCc3cc(F)c(F)cc32)sc1C(=O)O | -1.45
CSCC(=O)Nc1ncc(I)cc1C | 11.6
FC(F)(F)c1cccc(CNc2nccc(C(F)(F)F)n2)c1 | -3.61
O=C(c1ccc[nH]1)N1CC2(CCN(c3nccs3)C2)C1 | -3.73
Cc1ccccc1C(C)NC(=O)CSCC#N (centres undefined) | 12.8
COc1ccc(Cl)cc1C(=O)N1CCCC(c2cc(C)[nH]n2)C1 (centres undefined) | 0.303
O=C(C1CCCN(c2nc3ccccc3cc2CO)C1)N1CCCC1 (centres undefined) | 20.7
Cc1ccc([C@@H]2CN(S(=O)(=O)N3CCC(C)CC3)C[C@H]2N(C)C)cc1 | -12.1
O=C(C1CCSCC1)N1CC[C@H]2OCC[C@@]2(COCC2CC2)C1 | -6.06
CCOc1ncccc1C(=O)N1CCCC1Cn1cc(C)cn1 (centres undefined) | -5.13
COc1ccc(CN(C)c2ccc(-c3nccn3C)nn2)cc1OC | -5.32
CCSc1ncccc1C(=O)NCc1ccc(N(C)C)cc1 | -7.85
Cn1c(N)nnc1SCc1cc(Br)ccc1Cl | -10.9
O=C1NCCCCC1NC(=O)N1CCCc2cc(F)ccc21 (centres undefined) | -4.74

SMILES | cytotoxicity at 70.5 h [%]
Cn1nnnc1SCCNC(=O)C1CCN(C(=O)C2CCCC2)CC1 | -5.48
CC1CN(C)CCN1C(=O)Nc1nc(-c2ccco2)cs1 (centres undefined) | -13.7
CC(C)(C)OC(=O)N1CCC[C@H](NCC2CCOCC2)C1 | -0.369
CN1CCCN(C(=O)c2cccn2-c2ccc3c(c2)OCCO3)CC1 | -5.24
Cc1nc(-c2cc(C(=O)O)co2)cs1 | -9.39
CC(C)Cc1cc(C(=O)NCC2CCN(c3ccccc3F)C2)on1 (centres undefined) | -13.6
CCOc1ccc2c(c1)C=C(C(=O)NC(C)Cn1cccn1)CO2 (centres undefined) | -5.74
O=C(Nc1cnn(CC(=O)N2CCCO2)c1)c1ccccc1 | 8.2
Cn1cc(C(=O)NCc2cn3c(n2)CN(C2CCOCC2)CC3)cn1 | -109
CN1CCc2cc(C(=O)N(C)C)c(NCC3CC3)nc2CC1 | -1.63
CCc1nccn1C1CCCN(C(=O)c2ccc3nnc(C)n3c2)C1 (centres undefined) | -2.12
CCC(C)C(=O)N(Cc1ccccn1)C1CC1 (centres undefined) | 25.9
Cc1ccc(-c2nc(CNCC3CN(C)CCO3)co2)c(C)c1 (centres undefined) | 5.24
O=C1CC(c2ccco2)c2sc(C(=O)O)c(-c3ccccc3)c2N1 (centres undefined) | -13.5
CCOC1COC2(CCN(Cc3cccc(C#N)c3)CC2)C1 (centres undefined) | -8.68
COc1ccc(-c2cc(C3CCNCC3)nc(C)n2)cc1 | -6.57
COC(=O)[C@@H]1CN(C(=O)NC(C)C)CCN1S(=O)(=O)c1ccccc1 | -2.94
Cc1nc(C)n(CC2CCCN2Cc2cccc3c2OCCO3)n1 (centres undefined) | -5.55
COc1cc(N2CCCC3(CCN(c4cncnc4)C3=O)C2)ncn1 (centres undefined) | -7.92
COCCN(C(=O)c1ccsc1)c1ccc(C#N)cc1 | -3.69
Cc1nc(C(F)(F)F)nc(N2CCC(O)(C(=O)O)CC2)c1C | -6.27
Cc1noc(C(C)C)c1C(=O)NCC(c1ccccc1)N(C)C (centres undefined) | -8.37
